In US20180022780A1, “STABILIZATION ADRENOMEDULLIN DERIVATIVES AND USE THEREOF” (priority 2014, published 2018):
Bridge positions count the residues as written; N and C are the ends. Square brackets hold non-standard residues; d marks the D form. Peptide text beside a SMILES is read from it. * marks the point of attachment. Palmitoyl = CCCCCCCCCCCCCCCC(=O)*; NMeI = CC[C@H](C)[C@H](NC)C(=O)O; Dap = NC[C@H](N)C(=O)O

Experiments:
[1] = target: T1, human adrenomedullin-receptor (Homo sapiens, UniProt O60895+Q16602); test: Tests on a recombinant adrenomedullin-receptor reporter cell (CHO, aequorin luminescence); type: cell-based; settings: Table 1, CHO cell line carrying the human adrenomedullin-receptor
T1 construct: expressed in transfected cells; host or cells: CHO (Chinese hamster ovary) recombinant reporter cell line with aequorin
Procedure: Activation of the receptor by ligands was measured by aequorin luminescence. Construction of the cell line and measurement procedure has been described in detail [Wunder F., Rebmann A., Geerts A, and Kalthof B., Mol Pharmacol, 73, 1235-1243 (2008)]. In brief: Cells were seeded on opaque 384-well microtiter plates at a density of 4000 cells/well and were grown for 24 h. After removal of culture medium, cells were loaded for 3 h with 0.6 μg/ml coelenterazine in Ca^2+-free Tyrode solution (130 mM sodium chloride, 5 mM potassium chloride, 20 mM HEPES (4-(2-hydroxyethyl)-1-piperazineethanesulfonic acid), 1 mM magnesium chloride, and 4.8 mM sodium hydrogen carbonate, pH 7.4) supplemented with 0.2 mM 3-Isobutyl-1-methylxanthine (IBMX) in a cell culture incubator. Examples were added for 6 min in calcium^2+-free Tyrode solution containing 0.1% bovine serum albumin. Immediately before adding calcium^2+ to a final concentration of 3 mM measurement of the aequorin luminescence was started by use of a suitable luminometer. Luminescence was measured for 60 s. In a typical experiment compounds were tested in a concentration range of 1×10^−13 to 3×10^−6 M.

[2] = target: T2, CLR fused to EYFP and RAMP2 fused to ECFP (Homo sapiens, UniProt O60895+Q16602); test: cAMP assay (CRE luciferase reporter, HEK-293 cells transiently co-transfected with CLR and RAMP2); type: cell-based; settings: Table 2, cAMP assay; HEK-293, CLR/RAMP2, CRE luciferase, 3 h stimulation, normalized to [G^14]ADM(14-52)
T2 construct: EYFP; ECFP; expressed in transfected cells; host or cells: HEK-293 cells, transient co-transfection
Summary of the method: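 HEK-293 cells transiently co-transfected with CLR-EYFP, RAMP2-ECFP and a CRE-luc2P luciferase reporter were stimulated with ligands (eight concentrations, triplicate) for 3 h at 37 °C. Luminescence was corrected to 5 µM forskolin, normalized to [G^14]ADM(14-52) standard, and fitted by non-linear regression to dose-response curves.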

T2 sequence (Q16602 23-461): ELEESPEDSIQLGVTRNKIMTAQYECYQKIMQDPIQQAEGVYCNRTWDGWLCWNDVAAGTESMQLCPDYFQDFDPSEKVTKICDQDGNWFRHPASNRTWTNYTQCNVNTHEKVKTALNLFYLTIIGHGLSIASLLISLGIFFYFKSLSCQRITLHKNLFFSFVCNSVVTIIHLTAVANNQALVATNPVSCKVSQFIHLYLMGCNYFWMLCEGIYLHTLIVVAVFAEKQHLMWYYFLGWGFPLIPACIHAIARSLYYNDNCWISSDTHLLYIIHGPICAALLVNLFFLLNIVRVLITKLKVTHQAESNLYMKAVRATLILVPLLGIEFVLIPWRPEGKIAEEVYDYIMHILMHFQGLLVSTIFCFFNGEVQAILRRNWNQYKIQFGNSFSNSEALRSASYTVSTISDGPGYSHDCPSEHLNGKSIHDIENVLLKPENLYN
T2 sequence (O60895 43-175): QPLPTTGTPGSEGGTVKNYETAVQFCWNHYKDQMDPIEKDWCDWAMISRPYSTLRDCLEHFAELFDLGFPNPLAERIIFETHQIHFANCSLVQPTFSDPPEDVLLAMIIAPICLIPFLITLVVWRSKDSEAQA
T1 sequence (Q16602 23-461): as the sequence (Q16602 23-461) above
T1 sequence (O60895 43-175): as the sequence (O60895 43-175) above

Structure (SMILES) | EC50 [1] [nM] | EC50 [2] [nM]
CC[C@H](C)[C@H](NC(=O)[C@H](CCC(N)=O)NC(=O)[C@H](Cc1c[nH]cn1)NC(=O)[C@H](C)NC(=O)[C@H](CC(C)C)NC(=O)[C@H](CCCCN)NC(=O)[C@H](CCC(N)=O)NC(=O)[C@@H](NC(=O)[C@@H](NC(=O)[C@@H]1CCCCNC(=O)C[C@H](NC(=O)CNC(=O)CN)C(=O)N[C@@H](CCCNC(=N)N)C(=O)N[C@@H](Cc2ccccc2)C(=O)NCC(=O)N[C@@H]([C@@H](C)O)C(=O)N1)[C@@H](C)O)C(C)C)C(=O)N[C@@H](Cc1ccc(O)cc1)C(=O)N[C@@H](CCC(N)=O)C(=O)N[C@@H](Cc1ccccc1)C(=O)N[C@H](C(=O)N[C@@H](CC(=O)O)C(=O)N[C@@H](CCCCN)C(=O)N[C@@H](CC(=O)O)C(=O)N[C@@H](CCCCN)C(=O)N[C@@H](CC(=O)O)C(=O)N[C@@H](CC(N)=O)C(=O)N[C@H](C(=O)N[C@@H](C)C(=O)N1CCC[C@H]1C(=O)N[C@@H](CCCNC(=N)N)C(=O)N[C@@H](CO)C(=O)N[C@@H](CCCCN)C(=O)N[C@H](C(=O)N[C@@H](CO)C(=O)N1CCC[C@H]1C(=O)N[C@@H](CCC(N)=O)C(=O)NCC(=O)N[C@@H](Cc1ccc(O)cc1)C(N)=O)[C@@H](C)CC)C(C)C)[C@@H](C)O [Example 22, ((3S,9S,12S,15S,23S)-15-(2-(2-aminoacetamido)acetamido)-9-benzyl-12-(3-guanidinopropyl)-3-((R)-1-hydroxyethyl)-2,5,8,11,14,17-hexaoxo-1,4,7,10,13,18-hexaazacyclotricosane-23-carbonyl)-L-threonyl-ADM(22-52)] (H-GGDRFGTKTVQKLAHQIYQFTDKDKDNVAPRSKISPQGY-NH2; lactam 3-8) | 15 | 2.3
CC[C@H](C)[C@H](NC(=O)[C@H](CCC(N)=O)NC(=O)[C@H](Cc1c[nH]cn1)NC(=O)[C@H](C)NC(=O)[C@H](CC(C)C)NC(=O)[C@H](CCCCN)NC(=O)[C@H](CCC(N)=O)NC(=O)[C@@H](NC(=O)[C@@H](NC(=O)[C@@H]1CNC(=O)CC[C@H](NC(=O)CNC(=O)CN)C(=O)N[C@@H](CCCNC(=N)N)C(=O)N[C@@H](Cc2ccccc2)C(=O)NCC(=O)N[C@@H]([C@@H](C)O)C(=O)N1)[C@@H](C)O)C(C)C)C(=O)N[C@@H](Cc1ccc(O)cc1)C(=O)N[C@@H](CCC(N)=O)C(=O)N[C@@H](Cc1ccccc1)C(=O)N[C@H](C(=O)N[C@@H](CC(=O)O)C(=O)N[C@@H](CCCCN)C(=O)N[C@@H](CC(=O)O)C(=O)N[C@@H](CCCCN)C(=O)N[C@@H](CC(=O)O)C(=O)N[C@@H](CC(N)=O)C(=O)N[C@H](C(=O)N[C@@H](C)C(=O)N1CCC[C@H]1C(=O)N[C@@H](CCCNC(=N)N)C(=O)N[C@@H](CO)C(=O)N[C@@H](CCCCN)C(=O)N[C@H](C(=O)N[C@@H](CO)C(=O)N1CCC[C@H]1C(=O)N[C@@H](CCC(N)=O)C(=O)NCC(=O)N[C@@H](Cc1ccc(O)cc1)C(N)=O)[C@@H](C)CC)C(C)C)[C@@H](C)O [Example 6, ((3S,6S,12S,15S,18S)-18-(2-(2-aminoacetamido)acetamido)-12-benzyl-15-(3-guanidinopropyl)-6-((R)-1-hydroxyethyl)-5,8,11,14,17,21-hexaoxo-1,4,7,10,13,16-hexaazacyclohenicosane-3-carbonyl)-L-threonyl-ADM(22-52)] (H-GGERFGT[Dap]TVQKLAHQIYQFTDKDKDNVAPRSKISPQGY-NH2; lactam 3-8) | > 1000 | 303
CCCCCCCCCCCCCCCC(=O)NCCCC[C@H](N)C(=O)NCC(=O)N[C@H]1CCCCNC(=O)CC[C@@H](C(=O)N[C@H](C(=O)N[C@H](C(=O)N[C@@H](CCC(N)=O)C(=O)N[C@@H](CCCCN)C(=O)N[C@@H](CC(C)C)C(=O)N[C@@H](C)C(=O)N[C@@H](Cc2c[nH]cn2)C(=O)N[C@@H](CCC(N)=O)C(=O)N[C@H](C(=O)N[C@@H](Cc2ccc(O)cc2)C(=O)N[C@@H](CCC(N)=O)C(=O)N[C@@H](Cc2ccccc2)C(=O)N[C@H](C(=O)N[C@@H](CC(=O)O)C(=O)N[C@@H](CCCCN)C(=O)N[C@@H](CC(=O)O)C(=O)N[C@@H](CCCCN)C(=O)N[C@@H](CC(=O)O)C(=O)N[C@@H](CC(N)=O)C(=O)N[C@H](C(=O)N[C@@H](C)C(=O)N2CCC[C@H]2C(=O)N[C@@H](CCCNC(=N)N)C(=O)N[C@@H](CO)C(=O)N[C@@H](CCCCN)C(=O)N[C@H](C(=O)N[C@@H](CO)C(=O)N2CCC[C@H]2C(=O)N[C@@H](CCC(N)=O)C(=O)NCC(=O)N[C@@H](Cc2ccc(O)cc2)C(N)=O)[C@@H](C)CC)C(C)C)[C@@H](C)O)[C@@H](C)CC)C(C)C)[C@@H](C)O)NC(=O)[C@H]([C@@H](C)O)NC(=O)CNC(=O)[C@H](Cc2ccccc2)NC(=O)[C@H](CCCNC(=N)N)NC1=O [Example 13, ((2S,5S,11S,14S,23S)-23-(2-((S)-2-amino-6-palmitamidohexanamido)acetamido)-5-benzyl-2-(3-guanidinopropyl)-11-((R)-1-hydroxyethyl)-3,6,9,12,17,24-hexaoxo-1,4,7,10,13,18-hexaazacyclotetracosane-14-carbonyl)-L-threonyl-ADM(22-52)] (H-K(Palmitoyl)GKRFGTETVQKLAHQIYQFTDKDKDNVAPRSKISPQGY-NH2; lactam 3-8) | > 1000 | 156
CCCCCCCCCCCCCCCC(=O)NCCCC[C@H](N)C(=O)NCC(=O)N[C@H]1CCC(=O)NCCCC[C@@H](C(=O)N[C@H](C(=O)N[C@H](C(=O)N[C@@H](CCC(N)=O)C(=O)N[C@@H](CCCCN)C(=O)N[C@@H](CC(C)C)C(=O)N[C@@H](C)C(=O)N[C@@H](Cc2c[nH]cn2)C(=O)N[C@@H](CCC(N)=O)C(=O)N[C@H](C(=O)N[C@@H](Cc2ccc(O)cc2)C(=O)N[C@@H](CCC(N)=O)C(=O)N[C@@H](Cc2ccccc2)C(=O)N[C@H](C(=O)N[C@@H](CC(=O)O)C(=O)N[C@@H](CCCCN)C(=O)N[C@@H](CC(=O)O)C(=O)N[C@@H](CCCCN)C(=O)N[C@@H](CC(=O)O)C(=O)N[C@@H](CC(N)=O)C(=O)N[C@H](C(=O)N[C@@H](C)C(=O)N2CCC[C@H]2C(=O)N[C@@H](CCCNC(=N)N)C(=O)N[C@@H](CO)C(=O)N[C@@H](CCCCN)C(=O)N(C)[C@H](C(=O)N[C@@H](CO)C(=O)N2CCC[C@H]2C(=O)N[C@@H](CCC(N)=O)C(=O)NCC(=O)N[C@@H](Cc2ccc(O)cc2)C(N)=O)[C@@H](C)CC)C(C)C)[C@@H](C)O)[C@@H](C)CC)C(C)C)[C@@H](C)O)NC(=O)[C@H]([C@@H](C)O)NC(=O)CNC(=O)[C@H](Cc2ccccc2)NC(=O)[C@H](CCCNC(=N)N)NC1=O [Example 14, ((2S,5S,11S,14S,23S)-23-(2-((S)-2-amino-6-palmitamidohexanamido)acetamido)-5-benzyl-2-(3-guanidinopropyl)-11-((R)-1-hydroxyethyl)-3,6,9,12,20,24-hexaoxo-1,4,7,10,13,19-hexaazacyclotetracosane-14-carbonyl)-L-threonyl-[N-Me-I^47]ADM(22-52)] (H-K(Palmitoyl)GERFGTKTVQKLAHQIYQFTDKDKDNVAPRSK[NMeI]SPQGY-NH2; lactam 3-8) | 32 | 150
